Test results published in patent US20070238700A1, “N-PHENYL-1,1,1-TRIFLUOROMETHANESULFONAMIDE HYDRAZONE DERIVATIVE COMPOUNDS AND THEIR USAGE IN CONTROLLING PARASITES” (priority 2006, published 2007).
Like-named read-outs stand apart in the source and are kept apart here.

Experiments:
Ctenocephalides felis [1] = test system: Ctenocephalides felis
Summary of the method: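 Adult cat fleas (3–7 days post-emergence), 15 per flask in ≥4 replicates, exposed to a dried acetone residue at 1.26 μg/cm^2 on a Coatasil-treated glass flask base. Held at 25±1° C, 75±5% humidity; mortality (immobile or unable to right) scored at 8, 24 and/or 48 h.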

Ctenocephalides felis [2] = assay: Ctenocephalides felis adulticide assay: C. felis dose response (LC50)
From the text: c) Ctenocephalides felis Adulticide Assay: C. felis Dose Response
The purpose of this example was to determine the LC50 when cat fleas were contacted with a glass surface treated with sample compounds or formulations prepared as described above. […] The test species was the cat flea (Ctenocephalides felis). The strain used was obtained from external suppliers as pupae and held in the laboratory under testing conditions until the adults had emerged. Fifteen (15) fleas were used in a minimum of four replicates for each dose level (total of 60 fleas per dose level). The insects were selected to be in the adult life stage, aged between 3 and 7 days post emergence.
The compounds to be tested were dissolved in acetone just prior to testing. Samples of compounds were stored in a refrigerator (5±1° C.) unless otherwise specified. During the mortality testing, the temperature was maintained at 25±1° C. Humidity was maintained at 75±5%. The base (area=159 mm^2) of a 100 mL glass Erlenmeyer (conical) flask provided the treatment surface. Flasks were pretreated with Coatasil™ glass treatment to maximise bio-availability of test compounds by preventing them from binding to the glass surface.
The base of the 100 mL Erlenmeyer flask was treated with 0.5 mL of test sample in acetone and gently swirled. This volume was sufficient to cover the base of the flask. Flasks were left to dry for 24 hours before flea exposure. Adult cat fleas were lightly anaesthetised by cooling and then placed into a sorting chamber, which allowed fleas to revive and jump into the Erlenmeyer flasks. Fifteen (15) adult cat fleas were collected in each flask. The top of the flasks were then covered in Parafilm™ and small holes made to allow gas exchange. A 0.5 mL volume of acetone was applied to the base of an Erlenmeyer flask and the testing proceeded in the same manner described above. Cat fleas in the treatment containers were held under testing conditions for 24 hours. Mortality resulting from the treatments was recorded at 8 and 24 hours.

Rhipicephalus sanguineus [3] = assay: Rapid screening protocol for topical application on brown dog ticks (% mortality)
Method: d) Rapid Screening Protocol for Topical Application on Brown Dog Ticks (Rhipicephalus sanguineus)
The aim of the test was to determine the presence of significant acaricidal activity in sample compounds or formulations when applied topically on brown dog ticks. A tick was defined as dead if it gave no apparent response when touched lightly and observed for 1 minute. To assess the experimental compound for acaricidal activity, a single dose level was chosen based on known results from previous experiments with a commercially available active reference compound. Both permethrin and fipronil were employed as reference compounds. The insect species tested was the Brown Dog Tick (Rhipicephalus sanguineus). Mixed sex adult ticks were used for tests. The strain used was cultured by von Berky Veterinary Services, Woody Point, QLD, AU and supplied as unfed adult ticks (mixed sex). Ticks were maintained in controlled conditions (temp. 18°±2° C., humidity 75±5% RH).
Test compounds (formulations or active ingredients) were stored in a refrigerator (5±1° C.) unless otherwise specified. Temperature was maintained at 25±1° C. and the humidity was ambient. The screening dose chosen was higher than that known to kill 90% of insects (LD90) using the reference compound. In the case of topical application of active compounds on adult ticks, the reference compound was fipronil and the dose chosen was 10 μg of active per tick (=10 μg of fipronil/1 μl of acetone). Ticks were each treated on the abdomen with 1 μL of a single dose level of test sample in acetone; ten ticks were treated with solvent only (acetone) in each test. Tests were replicated 4 times (total of 40 ticks treated). Ticks were held in recovery containers maintained under appropriate rearing conditions for 24 hours. Mortality resulting from the treatments was recorded at 24 hours. Pooled 24 hour mortality data were converted to percentages.

Rhipicephalus sanguineus [4] = assay: Dose response protocol for topical application on brown dog ticks (LD50); conditions: 24 h mortality, probit analysis
Method: e) Dose response protocol for topical application on brown dog ticks (Rhipicephalus sanguineus): The test determines the level of insecticidal activity of sample compounds or formulations when applied topically on brown dog ticks. Sample compounds were stored prior to use in a freezer (−5±1° C.), unless otherwise specified.
• Mortality: A tick is defined as dead after it gives no apparent response when touched lightly or gently breathed upon, while observed for 30 seconds. • LD50 (Lethal Dose 50): The dose of a topically applied treatment at which 50% of the dog ticks are killed. • Reference compound: To assess an experimental compound for significant acaricidal activity a single dose level is chosen, which is based upon known results from previous experiments using a commercially available active i.e., a reference compound. The reference compound selected is one in common use, and one that has a similar mode of action against the Brown Dog Tick (i.e., the test species), • Recovery container: A recovery container consists of a 500 ml round plastic container measuring 115 mm diameter and 70 mm height, with a tight fitting lid that has 10 small (˜1 mm) holes inserted for air exchange. A 90 mm diameter piece of filter paper was placed on the bottom of the container and moistened with 1 mL of distilled water.
Adult, mixed sex, Brown Dog Ticks (Rhipicephalus sanguineus) were reared as follows: (i) cultured, (ii) transferred unfed, to a testing laboratory, and (iii) then maintained under controlled conditions (i.e., temp. 18°±2° C., humidity 75±5% RH). The ticks used were selected for vigor prior to testing, i.e., capable of actively walking and responsive to being touched or gently breathed upon.
During the testing, the temperature was maintained at 25±1° C. and the humidity was ambient. Seven dose levels (concentrations) of sample compound, in the form of serial dilutions in acetone, were derived from a pilot study and covered a range that produced very low to very high mortality. Groups of ten ticks were treated topically (on the abdomen) with 1 μL of a single dose level of the sample compound. Each test was replicated four times, i.e., employing a total of 40 ticks per dose level of each sample compound. As a control, ten ticks were treated with solvent only (acetone) for each test. Following the treatment, the ticks were held in recovery containers maintained under appropriate rearing conditions for 24 hours. Mortality resulting from the treatments was recorded at 24 hours. […] Press, London (1971).]

SMILES: CC(=NN(C)c1ccccc1F)c1cc(Cl)ccc1NS(=O)(=O)C(F)(F)F [Compound 49]
- C. felis Mortality (%) 8 h (Ctenocephalides felis [1]): 100%
- C. felis Mortality (%) 24 h (Ctenocephalides felis [1]): 100%
- C. felis LC50 (Ctenocephalides felis [2]; data from laboratory 1): 0.31 ppm
- R. sanguineus Mortality (%) 24 h (Rhipicephalus sanguineus [3]; data from laboratory 2): 100%
- R. sanguineus LD50 (Rhipicephalus sanguineus [4]): 1.6 μg/tick

SMILES: CCN(N=C(C)c1cc(Cl)ccc1NS(=O)(=O)C(F)(F)F)C(=O)OC [Compound 139]
- C. felis Mortality (%) 8 h (Ctenocephalides felis [1]): 97%
- C. felis Mortality (%) 24 h (Ctenocephalides felis [1]): 100%
- C. felis LC50 (Ctenocephalides felis [2]): 5.14 ppm
- R. sanguineus Mortality (%) 24 h (Rhipicephalus sanguineus [3]; data from laboratory 2): 100%
- R. sanguineus LD50 (Rhipicephalus sanguineus [4]): 0.39 μg/tick

SMILES: CCN(N=C(C)c1cc(Cl)ccc1NS(=O)(=O)C(F)(F)F)c1cc(Cl)cc(Cl)c1 [Compound 70]
- C. felis Mortality (%) 8 h (Ctenocephalides felis [1]): 95%
- C. felis Mortality (%) 24 h (Ctenocephalides felis [1]): 100%
- C. felis LC50 (Ctenocephalides felis [2]): 1.8 ppm
- R. sanguineus Mortality (%) 24 h (Rhipicephalus sanguineus [3]; data from laboratory 2): 100%
- R. sanguineus LD50 (Rhipicephalus sanguineus [4]): 4.1 μg/tick

SMILES: CCN(N=C(C)c1cc(Cl)ccc1NS(=O)(=O)C(F)(F)F)c1ccc(Cl)cc1 [Compound 26]
- C. felis Mortality (%) 24 h (Ctenocephalides felis [1]): 100%
- C. felis Mortality (%) 48 h (Ctenocephalides felis [1]): 100%
- C. felis LC50 (Ctenocephalides felis [2]): 0.12 ppm
- R. sanguineus Mortality (%) 24 h (Rhipicephalus sanguineus [3]; data from laboratory 2): 97%
- R. sanguineus LD50 (Rhipicephalus sanguineus [4]): 5.4 μg/tick

SMILES: CCCN(N=C(C)c1cc(Cl)ccc1NS(=O)(=O)C(F)(F)F)c1ccc(C(F)(F)F)cc1 [Compound 41]
- C. felis Mortality (%) 24 h (Ctenocephalides felis [1]): 94%
- C. felis Mortality (%) 48 h (Ctenocephalides felis [1]): 100%
- C. felis LC50 (Ctenocephalides felis [2]): 0.44 ppm
- R. sanguineus Mortality (%) 24 h (Rhipicephalus sanguineus [3]; data from laboratory 2): 100%
- R. sanguineus LD50 (Rhipicephalus sanguineus [4]): 3.8 μg/tick

SMILES: CCN(N=C(C)c1cc(Cl)ccc1NS(=O)(=O)C(F)(F)F)c1ccc(Cl)c(Cl)c1 [Compound 71]
- C. felis Mortality (%) 8 h (Ctenocephalides felis [1]): 94%
- C. felis Mortality (%) 24 h (Ctenocephalides felis [1]): 100%
- C. felis LC50 (Ctenocephalides felis [2]): 2.5 ppm
- R. sanguineus Mortality (%) 24 h (Rhipicephalus sanguineus [3]; data from laboratory 2): 98%
- R. sanguineus LD50 (Rhipicephalus sanguineus [4]): 4.2 μg/tick

SMILES: CCC(=NN1CCOCC1)c1cc(Cl)ccc1NS(=O)(=O)C(F)(F)F [Compound 36]
- C. felis Mortality (%) 24 h (Ctenocephalides felis [1]): 100%
- C. felis Mortality (%) 48 h (Ctenocephalides felis [1]): 100%
- C. felis LC50 (Ctenocephalides felis [2]): 2.5 ppm
- R. sanguineus Mortality (%) 24 h (Rhipicephalus sanguineus [3]; data from laboratory 2): 100%
- R. sanguineus LD50 (Rhipicephalus sanguineus [4]): 1.8 μg/tick

SMILES: CCC(=NN1CCCCC1)c1cc(Cl)ccc1NS(=O)(=O)C(F)(F)F [Compound 129]
- C. felis Mortality (%) 8 h (Ctenocephalides felis [1]): 27%
- C. felis Mortality (%) 24 h (Ctenocephalides felis [1]): 98%
- C. felis LC50 (Ctenocephalides felis [2]): 2.82 ppm
- R. sanguineus Mortality (%) 24 h (Rhipicephalus sanguineus [3]; data from laboratory 2): 98%
- R. sanguineus LD50 (Rhipicephalus sanguineus [4]): 0.52 μg/tick

SMILES: CCN(N=C(C)c1cc(Cl)ccc1NS(=O)(=O)C(F)(F)F)c1ccc(Br)cc1 [Compound 54]
- C. felis Mortality (%) 8 h (Ctenocephalides felis [1]): 95%
- C. felis Mortality (%) 24 h (Ctenocephalides felis [1]): 100%
- C. felis LC50 (Ctenocephalides felis [2]): 1.6 ppm
- R. sanguineus Mortality (%) 24 h (Rhipicephalus sanguineus [3]; data from laboratory 2): 95%
- R. sanguineus LD50 (Rhipicephalus sanguineus [4]): 5.6 μg/tick

SMILES: CC(=NN1CCOC1=O)c1cc(Cl)ccc1NS(=O)(=O)C(F)(F)F [Compound 23]
- C. felis Mortality (%) 8 h (Ctenocephalides felis [1]): 100%
- C. felis Mortality (%) 24 h (Ctenocephalides felis [1]): 100%
- C. felis LC50 (Ctenocephalides felis [2]): 2.0 ppm
- R. sanguineus Mortality (%) 24 h (Rhipicephalus sanguineus [3]; data from laboratory 1): 95^A %
- R. sanguineus LD50 (Rhipicephalus sanguineus [4]): 0.99 μg/tick

SMILES: CC(=NN(C)c1cccc(F)c1)c1cc(Cl)ccc1NS(=O)(=O)C(F)(F)F [Compound 74]
- C. felis Mortality (%) 8 h (Ctenocephalides felis [1]): 100%
- C. felis Mortality (%) 24 h (Ctenocephalides felis [1]): 100%
- C. felis LC50 (Ctenocephalides felis [2]): 0.76 ppm
- R. sanguineus Mortality (%) 24 h (Rhipicephalus sanguineus [3]; data from laboratory 2): 100%
- R. sanguineus LD50 (Rhipicephalus sanguineus [4]): 2.0 μg/tick

SMILES: CCOC(=O)N(C)N=C(C)c1cc(Cl)ccc1NS(=O)(=O)C(F)(F)F [Compound 126]
- C. felis Mortality (%) 8 h (Ctenocephalides felis [1]): 55%
- C. felis Mortality (%) 24 h (Ctenocephalides felis [1]): 97%
- C. felis LC50 (Ctenocephalides felis [2]; data from laboratory 1): 1.84 ppm
- R. sanguineus Mortality (%) 24 h (Rhipicephalus sanguineus [3]; data from laboratory 2): 100%
- R. sanguineus LD50 (Rhipicephalus sanguineus [4]): 0.69 μg/tick

SMILES: CC(=NN1CC(=O)NC1=O)c1cc(Cl)ccc1NS(=O)(=O)C(F)(F)F [Compound 55]
- C. felis Mortality (%) 8 h (Ctenocephalides felis [1]): 100%
- C. felis Mortality (%) 24 h (Ctenocephalides felis [1]): 100%
- C. felis LC50 (Ctenocephalides felis [2]; data from laboratory 1): 2.5 ppm
- R. sanguineus Mortality (%) 24 h (Rhipicephalus sanguineus [3]; data from laboratory 2): 100%
- R. sanguineus LD50 (Rhipicephalus sanguineus [4]): 1.7 μg/tick

SMILES: CCN(N=C(C)c1cc(Cl)ccc1NS(=O)(=O)C(F)(F)F)c1ccccc1F [Compound 43]
- C. felis Mortality (%) 24 h (Ctenocephalides felis [1]): 90%
- C. felis Mortality (%) 48 h (Ctenocephalides felis [1]): 100%
- C. felis LC50 (Ctenocephalides felis [2]): 0.35 ppm
- R. sanguineus Mortality (%) 24 h (Rhipicephalus sanguineus [3]; data from laboratory 2): 100%
- R. sanguineus LD50 (Rhipicephalus sanguineus [4]): 3.0 μg/tick

SMILES: C/C(=N\N(CCC#N)C(=O)c1ccccc1)c1cc(Cl)ccc1NS(=O)(=O)C(F)(F)F [Compound 222]
- C. felis Mortality (%) 8 h (Ctenocephalides felis [1]): 5%
- C. felis Mortality (%) 24 h (Ctenocephalides felis [1]): 89%
- C. felis LC50 (Ctenocephalides felis [2]): 2.64 ppm
- R. sanguineus Mortality (%) 24 h (Rhipicephalus sanguineus [3]; data from laboratory 2): 88%
- R. sanguineus LD50 (Rhipicephalus sanguineus [4]): 0.56 μg/tick

SMILES: CCC(=NN(C)C(=O)c1ccc(Cl)cc1Cl)c1cc(Cl)ccc1NS(=O)(=O)C(F)(F)F [Compound 82]
- C. felis Mortality (%) 8 h (Ctenocephalides felis [1]): 98%
- C. felis Mortality (%) 24 h (Ctenocephalides felis [1]): 100%
- C. felis LC50 (Ctenocephalides felis [2]): 2.4 ppm
- R. sanguineus Mortality (%) 24 h (Rhipicephalus sanguineus [3]; data from laboratory 2): 100%
- R. sanguineus LD50 (Rhipicephalus sanguineus [4]): 2.0 μg/tick

SMILES: CC(=NN(C)c1ccccc1)c1cc(Cl)ccc1NS(=O)(=O)C(F)(F)F [Compound 9]
- C. felis Mortality (%) 24 h (Ctenocephalides felis [1]): 100^B %
- C. felis LC50 (Ctenocephalides felis [2]; data from laboratory 1): 0.86 ppm
- R. sanguineus Mortality (%) 24 h (Rhipicephalus sanguineus [3]; data from laboratory 1): 88%
- R. sanguineus Mortality (%) 24 h (Rhipicephalus sanguineus [3]; data from laboratory 2): 98%
